# Laboratory results published in patent publication US9393219B2, “Monophenols and benzenediols sensitization of immune system against haptenized melanoma antigens” (ACADEMISCH ZIEKENHUIS BIJ DE UNIVERSITEIT VAN AMSTERDAM, priority 2005, dated 2016).
# Like-named read-outs stand apart in the source and are kept apart here.
# Assays:
# [1] = system: skin; details: cases in workers of polymer or leather industries; cited from earlier work
# [2] = system: skin of vitiligo patients; assay: histology of skin of vitiligo patients undergoing depigmentation therapy; format: in vivo, human
# From the text: (§1) No reaction occurs in depigmented skin. This entails that the inflammatory reaction is directed towards something, what is only present in melanocytes, e.g. tyrosinase, TRP1 and/or TRP2. However, auto-antibodies to tyrosinase, TRP1 and TRP2 have been reported to occur at low frequencies, or not at all, in vitiligo patients (37,38,39,40,41).
# [3] = system: melanocytes and keratinocytes; assay: in vitro toxic effects on melanocytes and keratinocytes; format: cell-based
# From the text: as §1
# [4] = system: pigmented skin / depigmented skin; assay: in vivo inflammatory response of pigmented and depigmented skin; set-up: species or system human
# From the text: as §1
# [5] = system: melanoma; details: cited from earlier work; for toxicity of intra arterial infusion: intra arterial infusions in the lower limbs, high doses; for efficacy as chemotherapeutic in melanoma: metastatic/disseminated melanoma, intra arterial infusion of high doses
# [6] = system: metastatic melanoma; details: immunotherapy; cited from earlier work
molecule,measurement,setting,value
"CC(C)(C)c1ccc(O)c(O)c1 [TBC, 4-tert-butylcatechol]",depigmentation on exposure of the skin,[1],causes leukoderma and can induce vitiligo-like depigmentation
"Oc1ccc(OCc2ccccc2)cc1 [Monobenzone, p-(benzyloxy)phenol]",histology of skin: infiltrate,[2],dense infiltrate consisting of mainly CD8^+ cells and macrophages
same,granulocytes in the skin infiltrate,[2]; granulocytes would indicate a toxic (orthoergic) reaction,no granulocytes
same,sensitivity of melanocytes and keratinocytes to the toxic effects,[3],equally sensitive
same,inflammatory reaction,[4]; depigmented skin,No reaction
same,"inflammatory response with erythema, edema and scaliness",[4]; pigmented skin,only seen in the pigmented skin
same,depigmentation on exposure of the skin,[1],causes leukoderma and can induce vitiligo-like depigmentation
"COc1ccc(O)cc1 [4-HA, 4-hydroxyanisole]",toxicity of intra arterial infusion,[5],serious renal and hepatic toxicity
same,toxicity of intra arterial infusion,[5]; listed as 4-Hydroxyanisole,severe toxic events
same,efficacy as chemotherapeutic in melanoma,[5],without success
same,efficacy as chemotherapeutic in melanoma,[5]; listed as 4-Hydroxyanisole,not effective
"interferon (IFNγ): interferon (IFNγ) used as immunotherapy for metastatic melanoma (protein, UniProt P01579 24-161, looked up) Interferon gamma: QDPYVKEAENLKKYFNAGHSDVADNGTLFLGILKNWKEESDRKIMQSQIVSFYFKLFKNFKDDQSIQKSVETIKEDMNVKFFNSNKKKRDDFEKLTNYSVTDLNVQRKAIHELIQVMAELSPAAKTGKRKRSQMLFRG",response rate,[6],approximately 15%
